Where “and” joins values, the source holds several entries; their conditions need not be identical. Equal values may be shown once.
What was measured:
[1] = test system: mice; assay: Ulcerogenicity measurement; type: in vivo; settings: for Average number of ulcers / Mean sum of lengths of elongated ulcer: mice; for Mean sum of lengths of elongated ulcer: ± SEM; for level of ulcerogenic activity (in words): relative to diclofenac and celecoxib
Method: Ulcerogenicity was evaluated according to a previously reported method[6]^a,[17]^,[18]. The number and total length of the ulcers for each animal were measured and their averages were calculated and used as the ulcer indices.

[2] = test system: carrageenan induced rat paw oedema; assay: rat carrageenan-induced foot paw oedema model; type: in vivo; settings: for Mean % increase in paw weight ± SEM / % Inhibition of paw oedema from control group: 2 h after carrageenan; for Mean % increase in paw weight ± SEM: control group 165.6 ± 1.6; for % Inhibition of paw oedema from control group: single dose screen (Table 1); for ED50: from three graded doses (45, 65, 80 mg/kg)
Method: Anti-inflammatory assessment of the newly synthesised compounds was carried out using an in vivo rat carrageenan-induced foot paw oedema model, as reported previously[16]^,[17].

[3] = target: T1, COX-1 (Ovis aries, UniProt P05979); assay: colorimetric COX (ovine) inhibitor screening assay kit; type: biochemical; settings: ovine COX-1, mean of two determinations
T1 construct: purchased Cayman Chemicals Inc., Ann Arbour, MI
T1 sequence (P05979 25-600): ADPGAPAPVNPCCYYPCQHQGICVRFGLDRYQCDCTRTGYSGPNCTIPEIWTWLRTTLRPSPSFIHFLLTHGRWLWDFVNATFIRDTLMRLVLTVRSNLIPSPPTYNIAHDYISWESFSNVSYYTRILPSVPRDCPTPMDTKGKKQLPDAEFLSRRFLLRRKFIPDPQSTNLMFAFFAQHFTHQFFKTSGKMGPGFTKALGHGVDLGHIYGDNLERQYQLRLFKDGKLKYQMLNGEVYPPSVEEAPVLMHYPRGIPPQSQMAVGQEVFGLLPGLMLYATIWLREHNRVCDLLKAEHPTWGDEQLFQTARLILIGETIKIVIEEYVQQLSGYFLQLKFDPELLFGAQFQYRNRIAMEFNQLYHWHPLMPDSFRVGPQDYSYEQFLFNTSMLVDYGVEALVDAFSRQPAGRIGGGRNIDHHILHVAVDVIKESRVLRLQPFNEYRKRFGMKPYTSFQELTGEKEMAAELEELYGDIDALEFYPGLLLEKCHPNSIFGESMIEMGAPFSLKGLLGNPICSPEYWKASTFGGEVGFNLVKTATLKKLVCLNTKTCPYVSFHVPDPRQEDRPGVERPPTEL
Source text: (§1) To determine the relative ability of the test compounds and reference drugs to inhibit COX-1/COX-2 isozymes, we used the colorimetric COX (ovine) inhibitor screening assay kit (Cayman Chemicals Inc., Ann Arbour, MI), according to the manufacturer’s instructions[3]^,[10]^,[11]^,[20].

[4] = target: T2, COX-2 (Ovis aries, UniProt P79208); assay: as above; type: biochemical; settings: for SI, selectivity index (COX-1 IC50/COX-2 IC50): ovine COX-1/COX-2; for IC50: ovine COX-2, mean of two determinations
T2 construct: purchased Cayman Chemicals Inc., Ann Arbour, MI
T2 sequence (P79208 17-603): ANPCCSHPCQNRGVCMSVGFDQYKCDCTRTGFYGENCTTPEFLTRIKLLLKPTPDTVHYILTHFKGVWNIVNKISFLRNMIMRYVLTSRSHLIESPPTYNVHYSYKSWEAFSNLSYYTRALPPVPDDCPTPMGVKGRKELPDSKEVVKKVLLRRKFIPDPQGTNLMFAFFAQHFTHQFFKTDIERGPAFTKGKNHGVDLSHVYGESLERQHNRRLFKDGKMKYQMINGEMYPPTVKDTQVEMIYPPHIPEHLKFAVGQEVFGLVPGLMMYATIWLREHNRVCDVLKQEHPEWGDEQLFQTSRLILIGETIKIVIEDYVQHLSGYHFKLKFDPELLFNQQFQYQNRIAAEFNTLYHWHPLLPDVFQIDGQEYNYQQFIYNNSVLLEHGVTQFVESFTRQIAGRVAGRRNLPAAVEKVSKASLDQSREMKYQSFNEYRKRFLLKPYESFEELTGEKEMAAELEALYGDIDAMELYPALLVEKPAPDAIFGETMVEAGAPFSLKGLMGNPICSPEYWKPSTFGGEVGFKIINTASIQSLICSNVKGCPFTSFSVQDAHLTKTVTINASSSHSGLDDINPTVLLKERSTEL
Source text: as §1

| Compound | Average number of ulcers [1] | Mean sum of lengths of elongated ulcer [1] [mm] | Mean % increase in paw weight ± SEM [2] [%] | % Inhibition of paw oedema from control group [2] | % Inhibition of paw oedema from control group ([2]; listed as celecoxib) [%] | Percentage inhibition of paw oedema from control group ([2]; dose 45 mg/kg) [%] | Percentage inhibition of paw oedema from control group ([2]; dose 65 mg/kg) [%] | Percentage inhibition of paw oedema from control group ([2]; dose 80 mg/kg) [%] | ED50 [2] [mg/kg] | melting point [°C] | IC50 [3] [µM] | SI, selectivity index (COX-1 IC50/COX-2 IC50) [4] | IC50 [4] [µM] | level of ulcerogenic activity (in words) [1] |
| --- | --- | --- | --- | --- | --- | --- | --- | --- | --- | --- | --- | --- | --- | --- |
| Cc1ccc(-c2cc(C(F)(F)F)nn2-c2ccc(S(N)(=O)=O)cc2)cc1 [Celecoxib, 4-[5-(4-methylphenyl)-3-(trifluoromethyl)-1H-pyrazol-1-yl]benzenesulfonamide, reference compound] | 5 | 5.8 ± 0.77 | 27.3 ± 0.4 | 85.6 ± 0.4% | 85.6 | 69.8 | 85.6 | 93.5 | 34.1 |  |  |  |  |  |
| NS(=O)(=O)c1cccc(N2C(=O)c3cc(Cl)c(Cl)cc3C2=O)c1 [Compound 7, 3-(5,6-Dichloro-1,3-dioxoisoindolin-2-yl)benzenesulfonamide] |  |  | 129.7 ± 0.9 | 29.7% and 29.7 ± 0.2% |  |  |  |  |  | 256 to 258 |  |  |  |  |
| NS(=O)(=O)c1cccc(N2C(=O)c3ccc([N+](=O)[O-])cc3C2=O)c1 [Compound 9] | 4 | 1.7 ± 0.21 | 35.6 ± 0.1 | 80.9% and 80.9 ± 0.9% |  | 69.8 | 80.9 | 90.5 | 37 |  | > 50 | >333.3 | 0.15 | very low levels of ulcerogenic activity |
| C/C(=N/O)c1ccc(N2C(=O)C3CC=CCC3C2=O)cc1 (stereo not drawn) [Compound 12] | 5 | 2.4 ± 0.13 | 37.5 ± 0.5 | 79.7% and 79.7 ± 0.4% |  | 65.3 | 79.7 | 87.4 | 39.2 |  | > 50 | >312.5 | 0.16 | ulcerogenic level similar to celecoxib and less than that of diclofenac |
| C/C(=N/O)c1ccc(N2C(=O)c3ccccc3C2=O)cc1 [Compound 13] | 5 | 2.1 ± 0.23 | 36.2 ± 0.2 | 80.4% and 80.4 ± 0.7% |  | 67.9 | 80.4 | 91.1 | 37.5 |  | > 50 | >312.5 | 0.16 | ulcerogenic level similar to celecoxib and less than that of diclofenac |
| C/C(=N/O)c1ccc(N2C(=O)c3ccc(C)cc3C2=O)cc1 [Compound 14] |  |  | 70.8 ± 0.6 | 61.6% and 61.6 ± 0.5% |  |  |  |  |  |  | > 50 | >62.5 | 0.8 |  |
| C/C(=N/O)c1ccc(N2C(=O)c3ccc(C(C)(C)C)cc3C2=O)cc1 [Compound 15] |  |  | 95.7 ± 0.9 | 48.1% and 48.1 ± 0.2% |  |  |  |  |  |  | > 50 | >14.3 | 3.5 |  |
| C/C(=N/O)c1ccc(N2C(=O)c3cc(Cl)c(Cl)cc3C2=O)cc1 [Compound 16] |  |  | 115.3 ± 1.2 | 39.6% and 39.6 ± 0.4% |  |  |  |  |  |  |  |  |  |  |
| C/C(=N/O)c1ccc(N2C(=O)c3c(Cl)c(Cl)c(Cl)c(Cl)c3C2=O)cc1 [Compound 17] |  |  | 135.6 ± 0.8 | 25.1% and 25.1 ± 0.6% |  |  |  |  |  |  |  |  |  |  |
| O=C(O)CC(c1ccccc1)N1C(=O)C2CC=CCC2C1=O (stereo not drawn) [Compound 22] |  |  | 69.1 ± 0.5 | 62.9 ± 0.4% |  |  |  |  |  |  | 11.6 | 0.46 | 25.1 |  |
| O=C(O)CC(c1ccccc1)N1C(=O)c2ccccc2C1=O (stereo not drawn) [Compound 23] |  |  | 65.6 ± 0.3 | 64.4% and 64.4 ± 0.7% |  |  |  |  |  |  | 10.9 | 0.49 | 22.3 |  |
| Cc1ccc2c(c1)C(=O)N(C(CC(=O)O)c1ccccc1)C2=O (stereo not drawn) [Compound 24] |  |  | 123.4 ± 0.9 | 33.1 ± 0.4% |  |  |  |  |  |  | 24.8 | 0.68 | 36.3 |  |
| CC(C)(C)c1ccc2c(c1)C(=O)N(C(CC(=O)O)c1ccccc1)C2=O (stereo not drawn) [Compound 25, 3-(5-(tert-Butyl)-1,3-dioxoisoindolin-2-yl)-3-phenylpropanoic acid] |  |  | 129.0 ± 1.1 | 29.6 ± 0.7% |  |  |  |  |  | 119 to 121 |  |  |  |  |
| O=C(O)CC(c1ccccc1)N1C(=O)c2cc(Cl)c(Cl)cc2C1=O (stereo not drawn) [Compound 26, 3-(5,6-Dichloro-1,3-dioxoisoindolin-2-yl)-3-phenylpropanoic acid] |  |  | 136.3 ± 0.8 | 24.4 ± 0.3% |  |  |  |  |  | 205 to 207 |  |  |  |  |
| O=C(O)CC(c1ccccc1)N1C(=O)c2c(Cl)c(Cl)c(Cl)c(Cl)c2C1=O (stereo not drawn) [Compound 27, 3-Phenyl-3-(4,5,6,7-tetrachloro-1,3-dioxoisoindolin-2-yl)propanoic acid] |  |  | 141.6 ± 1.0 | 21.2 ± 0.9% |  |  |  |  |  | 280 to 282 |  |  |  |  |
| O=C(O)CC(c1ccccc1)N1C(=O)c2cccc3cccc(c23)C1=O (stereo not drawn) [Compound 29, 3-(1,3-Dioxo-1H-benzo[de]isoquinolin-2(3H)-yl)-3-phenylpropanoic acid] |  |  | 130.8 ± 0.7 | 27.0% and 27.0 ± 0.1% |  |  |  |  |  | 151 to 153 |  |  |  |  |
| O=C(O)Cc1ccccc1Nc1c(Cl)cccc1Cl [Diclofenac, reference compound] | 10 | 7.6 ± 0.89 | 30.1 ± 0.3 | 83.4% and 83.4 ± 0.5% |  |  |  |  |  |  |  |  |  |  |
